Data on two compounds can be found in patent US9206194B2, “Halichondrin B analogs” (Eisai R&D Management Co., Ltd., priority 2008, dated 2015).

In assay [1] the test system is P-Glycoprotein-mediated MDR, Dx5-Rx1 versus MES-SA cells. The assay can be described thus: Susceptibility of compound to P-glycoprotein-mediated multidrug resistance (fold resistance). Particulars: fold resistance: ratio of the IC50 values in resistant and parental cell lines. The class given is cell-based, human. Here is the method:
Susceptibility of Compound to P-Glycoprotein-Mediated Multidrug Resistance (MDR). A pair of human uterine sarcoma cell lines was used: MES-SA, the MDR negative parental cell line, and Dx5-Rx1, a cell line derived from MES-SA after long term of exposure to doxorubicin. This subline expresses P-Glycoprotein at high levels. Both cell lines were seeded at 7.5×10^3 cells/well in McCoy's 5A supplemented with 10% FBS and penicillin, streptomycin and L-glutamine and cell growth was measured as above. The ratio of the IC50 values obtained in the parental and resistant cell lines was termed fold resistance and provided an indication of compound susceptibility to P-glycoprotein-mediated MDR against the two cell lines were compared with each other.

In assay [2] the test system is MES-SA/Dx5-Rx1 uterine sarcoma cells (expresses P-Glycoprotein at high levels). The assay can be described thus: Cell growth inhibition assay (methylene blue-based microculture), Dx5-Rx1. On the set-up: species or system human. The settings on record: Dx5-Rx1, doxorubicin-selected P-glycoprotein expressing subline; 4 days incubation; compound in the crystalline form described. As to the method:
(§1) The anti-cancer activity of the compounds described above, in the crystalline forms described, was determined using cell growth inhibition assays as described in Liu, J. et al. Anticancer Research, 27:1509-1511 (2007). The activity data in terms of IC50 nM is described below in Table 9. MES-SA and MES-SA/Dx5-Rx1 uterine sarcoma, were obtained from the American Type Culture Collection and grown in the recommended conditions.
(§2) Cell Growth Inhibition Assays. Cells were seeded at 7.5×10^3 cells/well in 96-well plates in the recommended medium supplemented with 10% FBS and penicillin, streptomycin and L-glutamine. […] The cell growth was determined using modifications (see Finlay G. J., et al. “A semiautomated microculture method for investigating growth inhibitory effects of cytotoxic compounds on exponentially growing carcinoma cells.” Anal Biochem 139: 272-277, 1984) of a methylene blue-based microculture assay (See Towle M. J., et al. “In vitro and in vivo anticancer activities of synthetic macrocyclic ketone analogues of halichondrin B.” Cancer Res 61: 1013-1021, 2001). […] The plates were read at A600-A405.
(§3) Susceptibility of Compound to P-Glycoprotein-Mediated Multidrug Resistance (MDR). […] Both cell lines were seeded at 7.5×10^3 cells/well in McCoy's 5A supplemented with 10% FBS and penicillin, streptomycin and L-glutamine and cell growth was measured as above. […]

Assay [3] relates to MES-SA uterine sarcoma cells. The assay can be described thus: Cell growth inhibition assay (methylene blue-based microculture), MES-SA. Further details: species or system human. Particulars: MDR negative parental cell line, 4 days incubation, compound in the crystalline form described. As to the method:
as §1, §2, §3

The IC50 is the concentration at which inhibition is half-maximal. As to `C=C1C[C@@H]2CC[C@@]34C[C@H]5O[C@H]6[C@@H](O3)[C@H]3O[C@H](CC[C@@H]3O[C@H]6[C@H]5O4)CC(=O)C[C@@H]3[C@@H](OC)[C@@H](C[C@H](O)CN)O[C@H]3C[C@H]3O[C@H](CC[C@@H]1O2)C[C@@H](C)C3=C` [ER-820057 (epi-C23 amine)], the “Ratio of DxR-Rx1/MES-SA” value in assay [1] is on record as 303. The half-inhibitory concentration (IC50) in assay [2] amounted to 1000 nM; in assay [3] it was 3.3 nM.
Turning to `C=C1C[C@@H]2CC[C@@]34C[C@H]5O[C@H]6[C@@H](O3)[C@H]3O[C@H](CC[C@@H]3O[C@H]6[C@H]5O4)CC(=O)C[C@@H]3[C@@H](OC)[C@@H](C[C@H](O)CO)O[C@H]3C[C@H]3O[C@@H](CC[C@@H]1O2)C[C@@H](C)C3=C` [ER-076349 monohydrate], in assay [1], the “Ratio of DxR-Rx1/MES-SA” value stood at 217. The IC50 in assay [2] worked out at 6.5 nM; in assay [3], 0.03 nM.
